Columns and labels:
[1] = target: T1, human GIP receptor (hGIP-R) (Homo sapiens, UniProt P48546); experiment: cAMP response (HTRF) of HEK-293 cells stably expressing human GIP receptor; assay type: cell-based; conditions: Table 8; cAMP formation
T1 construct: expressed in transfected cells; host or cells: HEK-293
T1 sequence (P48546 22-466): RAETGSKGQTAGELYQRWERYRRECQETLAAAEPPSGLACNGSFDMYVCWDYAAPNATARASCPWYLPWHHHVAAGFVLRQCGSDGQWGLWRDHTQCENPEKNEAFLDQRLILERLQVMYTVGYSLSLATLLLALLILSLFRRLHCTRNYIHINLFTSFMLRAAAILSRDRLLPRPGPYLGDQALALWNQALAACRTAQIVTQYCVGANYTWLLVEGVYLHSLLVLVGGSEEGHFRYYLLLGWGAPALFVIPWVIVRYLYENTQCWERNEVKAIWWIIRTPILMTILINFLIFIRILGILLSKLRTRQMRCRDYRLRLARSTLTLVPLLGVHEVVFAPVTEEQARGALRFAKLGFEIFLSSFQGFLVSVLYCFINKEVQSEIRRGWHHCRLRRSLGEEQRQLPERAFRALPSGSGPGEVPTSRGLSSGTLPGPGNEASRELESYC
Outline: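 HEK-293 cells stably expressing the receptor, resuspended in HBSS/20 mM HEPES/0.1% BSA/2 mM IBMX at 400000 cells/ml, were exposed to increasing concentrations of peptide for 30 minutes at room temperature. Formed cAMP was measured by HTRF to give potency.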

[2] = Dynamic light scattering (DLS), hydrodynamic radius as surrogate for interaction parameter kD; assay type: physicochemical
Outline: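 Rh and diffusion constant measured in triplicate at 1 and 5 mg/ml peptide in 25 mM acetate pH4.5 with methionine, m-cresol and glycerol, at 25°C, 830 nm, 158°. Rh5<Rh1 or D5>D1 taken as kD>0, indicating repulsive interactions.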

[3] = Solubility assessment (UPLC-UV); assay type: physicochemical; conditions: acetate buffer pH 4.5, 2.7 mg/ml m-cresol (buffer system A), target 10 mg/ml
Outline: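 Peptides at 10 mg/mL (purity-corrected, by UPLC/MS) in 100 mM acetate buffer pH 4.5 with 2.7 mg/ml m-Cresol, gently agitated 1 hour, then centrifuged 15 min at 2500 RCF. Supernatant, diluted 1:10, quantified by UPLC-UV peak area against a reference peptide standard curve, extinction-coefficient corrected.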

EC50 [1]: 7.9 pM | Delta Rh [nm] = Rh5 − Rh1 ([2]; DLS buffer system A pH 4.5): −0.5 nm | Rh1 [nm] c= 1 mg/ml ([2]; hydrodynamic radius, 1 mg/ml, DLS buffer system A pH 4.5, DLS method C, 25° C.): 2.3 nm | Rh5 [nm] c = 5 mg/ml ([2]; hydrodynamic radius, 5 mg/ml, DLS buffer system A pH 4.5, DLS method C, 25° C.): 1.8 nm | solubility at 1 h [3]: > 9600 µg/mL
Compound: CCCCCCCCCCCCCCCC(=O)N[C@@H](CCC(=O)N[C@@H](CCC(=O)NCCCC[C@H](NC(=O)[C@H](CC(C)C)NC(=O)[C@H](CCCCN)NC(=O)[C@H](CO)NC(=O)[C@H](CC(C)C)NC(=O)[C@H](CC(=O)O)NC(=O)[C@H](CO)NC(=O)[C@@H](NC(=O)[C@H](Cc1ccccc1)NC(=O)[C@@H](NC(=O)CNC(=O)[C@H](CCC(N)=O)NC(=O)C(C)(C)NC(=O)[C@@H](N)Cc1c[nH]cn1)[C@@H](C)O)[C@@H](C)O)C(=O)N[C@@H](CCC(=O)O)C(=O)N[C@@H](CCCCN)C(=O)N[C@@H](CCC(N)=O)C(=O)N[C@@H](CCCNC(=N)N)C(=O)N[C@@H](CCC(N)=O)C(=O)NC(C)(C)C(=O)N[C@@H](CCC(=O)O)C(=O)N[C@@H](Cc1ccccc1)C(=O)N[C@H](C(=O)N[C@@H](CCC(=O)O)C(=O)N[C@@H](Cc1c[nH]c2ccccc12)C(=O)N[C@@H](CC(C)C)C(=O)N[C@@H](CCCCN)C(=O)N[C@@H](C)C(=O)NCC(=O)NCC(=O)N1CCC[C@H]1C(=O)N1CCC[C@H]1C(=O)N[C@@H](CO)C(=O)NC(C)(C)C(=O)N[C@@H](CCCCN)C(=O)N1CCC[C@H]1C(=O)N1CCC[C@H]1C(=O)N1CCC[C@H]1C(=O)N[C@@H](CCCCN)C(N)=O)[C@@H](C)CC)C(=O)O)C(=O)O [SEQ ID NO: 6, H-Aib-Q-G-T-F-T-S-D-L-S-K-L-K[gGlu-gGlu-Palm]-E-K-Q-R-Q-Aib-E-F-I-E-W-L-K-A-G-G-P-P-S-Aib-K-P-P-P-K-NH2]
